Experimental data taken from patent US20240150377A1, “MODULATORS OF CYSTIC FIBROSIS TRANSMEMBRANE CONDUCTANCE REGULATOR” (VERTEX PHARMACEUTICALS INCORPORATED, priority 2020, published 2024).
Like-named read-outs stand apart in the source and are kept apart here.

Target: CFTR (Homo sapiens, UniProt P13569)
Assay: Membrane potential dye, Enteroid Assay A
Assay type: cell-based
Conditions: for Ent. A Max Activity: chloride transport as % of triple combination control (Enteroid Assay A); for EC50: human enteroid cells, 18-24 hours, acute 10 μM forskolin and 300 nM ivacaftor, read-out: Ent. A EC50
Method in brief: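 Human intestinal enteroids incubated 18-24 h at 37 °C with test compound, then loaded with 20 μM methyl oxonol (with CaCC inhibitors). Chloride transport triggered in chloride-free buffer with 10 μM forskolin, 100 μM IBMX, 300 nM Compound III; fluorescence read 15 min, expressed as % of a triple-combination corrector/potentiator control.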

Chain of CFTR (P13569 with tags, fused parts or gaps DEL508-508): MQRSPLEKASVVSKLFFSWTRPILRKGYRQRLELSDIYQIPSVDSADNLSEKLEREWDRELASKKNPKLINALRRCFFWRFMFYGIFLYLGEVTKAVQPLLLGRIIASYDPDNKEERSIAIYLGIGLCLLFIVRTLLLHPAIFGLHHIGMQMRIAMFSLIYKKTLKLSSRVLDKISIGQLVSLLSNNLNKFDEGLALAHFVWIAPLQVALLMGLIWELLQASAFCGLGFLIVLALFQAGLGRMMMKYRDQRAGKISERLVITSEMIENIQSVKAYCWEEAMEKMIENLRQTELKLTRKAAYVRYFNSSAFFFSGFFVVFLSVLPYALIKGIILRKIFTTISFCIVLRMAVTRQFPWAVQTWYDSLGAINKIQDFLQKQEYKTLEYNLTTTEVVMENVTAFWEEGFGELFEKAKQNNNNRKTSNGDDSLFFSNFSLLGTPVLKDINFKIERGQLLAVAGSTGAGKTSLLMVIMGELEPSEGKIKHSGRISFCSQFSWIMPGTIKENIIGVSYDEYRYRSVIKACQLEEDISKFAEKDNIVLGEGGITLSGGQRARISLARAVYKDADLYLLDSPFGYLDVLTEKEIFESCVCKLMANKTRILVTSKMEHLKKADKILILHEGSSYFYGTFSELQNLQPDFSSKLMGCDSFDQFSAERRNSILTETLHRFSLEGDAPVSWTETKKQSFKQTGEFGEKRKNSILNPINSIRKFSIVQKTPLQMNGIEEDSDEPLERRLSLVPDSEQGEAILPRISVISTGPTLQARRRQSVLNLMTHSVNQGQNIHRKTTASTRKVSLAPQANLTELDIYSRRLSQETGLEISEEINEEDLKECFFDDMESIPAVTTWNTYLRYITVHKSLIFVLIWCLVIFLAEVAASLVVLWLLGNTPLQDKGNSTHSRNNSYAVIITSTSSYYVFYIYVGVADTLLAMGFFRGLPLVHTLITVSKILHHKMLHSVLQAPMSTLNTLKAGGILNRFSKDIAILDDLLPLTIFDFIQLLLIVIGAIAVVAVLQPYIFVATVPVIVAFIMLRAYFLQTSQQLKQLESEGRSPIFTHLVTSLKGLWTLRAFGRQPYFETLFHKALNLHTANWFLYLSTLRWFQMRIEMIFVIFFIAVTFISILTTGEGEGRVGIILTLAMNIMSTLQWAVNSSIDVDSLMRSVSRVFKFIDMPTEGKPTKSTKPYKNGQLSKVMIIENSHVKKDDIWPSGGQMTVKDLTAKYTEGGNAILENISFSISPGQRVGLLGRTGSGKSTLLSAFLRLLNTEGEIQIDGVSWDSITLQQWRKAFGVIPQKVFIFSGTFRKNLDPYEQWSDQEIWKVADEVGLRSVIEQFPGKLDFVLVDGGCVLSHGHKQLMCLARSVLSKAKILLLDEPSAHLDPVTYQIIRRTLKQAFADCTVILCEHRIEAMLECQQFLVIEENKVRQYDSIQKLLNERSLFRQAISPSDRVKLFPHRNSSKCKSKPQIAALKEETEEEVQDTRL

Row | Ent. A Max Activity (Table 7) | EC50 (Table 7) [µM] | Ent. A Max Activity (Table 6) | EC50 (Table 6) [µM] | Compound
1 | – | – | +++ (+++ is >60%) | < 1 | Cc1cccc(C)c1-c1cc2nc(n1)NS(=O)(=O)c1cccc(c1)C(=O)N(Cc1ccn[nH]1)[C@H](CC(C)C)CO2 [Compound 860]
2 | – | – | ++ (++ is 30-60%) | 1 to 3 | Cc1cccc(C)c1-c1cc2nc(n1)NS(=O)(=O)c1cccc(c1)C(=O)N(Cc1ccccc1C#N)[C@H](CC(C)C)CO2 [Compound 861]
3 | – | – | +++ (+++ is >60%) | < 1 | Cc1cccc(C)c1-c1cc2nc(n1)NS(=O)(=O)c1cccc(c1)C(=O)N(Cc1ccccc1)[C@H](CC(C)C)CO2 [Compound 862]
4 | – | – | +++ (+++ is >60%) | < 1 | Cc1cccc(C)c1-c1cc2nc(n1)NS(=O)(=O)c1cccc(c1)C(=O)N(CC(C)C)C[C@H](Cc1ccccc1)O2 [Compound 863]
5 | – | – | ++ (++ is 30-60%) | < 1 | Cc1cccc(C)c1-c1cc2nc(n1)NS(=O)(=O)c1cccc(c1)C(=O)N(CC(C)C)C[C@H](c1ccccc1)O2 [Compound 864]
6 | +++ (+++ is >60%) | < 1 | – | – | CCN(CCO)c1ccc(CN2C(=O)c3cccc(c3)S(=O)(=O)Nc3nc(cc(-c4c(C)cccc4C)n3)OC[C@H]2CC(C)C)cn1 [Compound 935]
7 | +++ (+++ is >60%) | < 1 | – | – | Cc1cccc(C)c1-c1cc2nc(n1)NS(=O)(=O)c1cccc(c1)C(=O)N(Cc1ccc(N3CCC4(CCC4)CC3)nc1)[C@H](CC(C)C)CO2 [Compound 936]
8 | +++ (+++ is >60%) | < 1 | – | – | Cc1cccc(C)c1-c1cc2nc(n1)NS(=O)(=O)c1cccc(c1)C(=O)N(Cc1ccc(N3CCC(F)(F)CC3)nc1)[C@H](CC(C)C)CO2 [Compound 937]
9 | +++ (+++ is >60%) | < 1 | – | – | Cc1cccc(C)c1-c1cc2nc(n1)NS(=O)(=O)c1cccc(c1)C(=O)N(Cc1ccc(N3CCC(C)(C#N)CC3)nc1)[C@H](CC(C)C)CO2 [Compound 938]
10 | +++ (+++ is >60%) | < 1 | – | – | Cc1cccc(C)c1-c1cc2nc(n1)NS(=O)(=O)c1cccc(c1)C(=O)N(Cc1ccc(N3CCC(C)(O)CC3)nc1)[C@H](CC(C)C)CO2 [Compound 939]
11 | +++ (+++ is >60%) | < 1 | – | – | Cc1cccc(C)c1-c1cc2nc(n1)NS(=O)(=O)c1cccc(c1)C(=O)N(Cc1ccc(N3CCC(C)(C)CC3)nc1)[C@H](CC(C)C)CO2 [Compound 940]
12 | +++ (+++ is >60%) | < 1 | – | – | Cc1cccc(C)c1-c1cc2nc(n1)NS(=O)(=O)c1cccc(c1)C(=O)N(Cc1ccc(N3CCC(C(C)(C)C)CC3)nc1)[C@H](CC(C)C)CO2 [Compound 941]
13 | +++ (+++ is >60%) | < 1 | – | – | Cc1cccc(C)c1-c1cc2nc(n1)NS(=O)(=O)c1cccc(c1)C(=O)N(Cc1ccc(OCCN(C)C)nc1)[C@H](CC(C)C)CO2 [Compound 942]
14 | +++ (+++ is >60%) | < 1 | – | – | Cc1cccc(C)c1-c1cc2nc(n1)NS(=O)(=O)c1cccc(c1)C(=O)N(Cc1ccc(N(C)CCN(C)C)nc1)[C@H](CC(C)C)CO2 [Compound 943]
15 | +++ (+++ is >60%) | < 1 | – | – | Cc1cccc(C)c1-c1cc2nc(n1)NS(=O)(=O)c1cccc(c1)C(=O)N(Cc1ccc(NCCN(C)C)nc1)[C@H](CC(C)C)CO2 [Compound 944]
16 | +++ (+++ is >60%) | < 1 | – | – | Cc1cccc(C)c1-c1cc2nc(n1)NS(=O)(=O)c1cccc(c1)C(=O)N(Cc1ccc(N3CCC(N(C)C)CC3)nc1)[C@H](CC(C)C)CO2 [Compound 945]
17 | +++ (+++ is >60%) | < 1 | – | – | Cc1cccc(C)c1-c1cc2nc(n1)NS(=O)(=O)c1cccc(c1)C(=O)N(Cc1ccc(NCCO)nc1)[C@H](CC(C)C)CO2 [Compound 946]

The next lines start with the compound.

Row | Compound | Ent. A Max Activity (Table 7) | EC50 (Table 7) [µM] | Ent. A Max Activity (Table 6) | EC50 (Table 6) [µM]
18 | Cc1cccc(C)c1-c1cc2nc(n1)NS(=O)(=O)c1cccc(c1)C(=O)N(C)CC(c1ccc(C3=CCOCC3)cc1)O2 (stereo not drawn) [Compound 670] | ++ (++ is 30-60%) | 1 to 3 | – | –
19 | Cc1cccc(C)c1-c1cc2nc(n1)NS(=O)(=O)c1cccc(c1)C(=O)N(C)CC(c1ccc(C3=CCOCC3)cc1)O2 (stereo not drawn) [Compound 671] | +++ (+++ is >60%) | < 1 | – | –
20 | Cc1cccc(C)c1-c1cc2nc(n1)NS(=O)(=O)c1cccc(c1)C(=O)N(C)C[C@H](c1ccccc1)O2 [Compound 672] | – | – | ++ (++ is 30-60%) | < 1
21 | Cc1cccc(C)c1-c1cc2nc(n1)NS(=O)(=O)c1cccc(c1)C(=O)N(C)C[C@H](c1ccccc1)O2 [Compound 673] | – | – | + (+ is <30%) | 3 to 30
22 | Cc1cccc(C)c1-c1cc2nc(n1)NS(=O)(=O)c1cccc(c1)C(=O)N(C)CC(c1ccc(C3CC3)cc1)O2 (stereo not drawn) [Compound 674] | – | – | ++ (++ is 30-60%) | < 1
23 | Cc1cccc(C)c1-c1cc2nc(n1)NS(=O)(=O)c1cccc(c1)C(=O)N(C)CC(c1ccc(C3=CCOCC3)cc1)O2 (stereo not drawn) [Compound 675] | – | – | ++ (++ is 30-60%) | < 1
24 | Cc1cccc(C)c1-c1cc2nc(n1)NS(=O)(=O)c1cccc(c1)C(=O)N(C)CC(c1ccc(C3=CCN(C)CC3)cc1)O2 (stereo not drawn) [Compound 676] | – | – | ++ (++ is 30-60%) | 3 to 30
25 | Cc1cccc(C)c1-c1cc2nc(n1)NS(=O)(=O)c1cccc(c1)C(=O)N(C)CC(c1ccccc1)O2 (stereo not drawn) [Compound 677] | – | – | +++ (+++ is >60%) | < 1
26 | COc1ccc(CN2C(=O)c3cccc(c3)S(=O)(=O)Nc3nc(cc(-c4c(C)cccc4C)n3)OC[C@H]2CC2(C(F)(F)F)CC2)cc1 [Compound 678] | ++ (++ is 30-60%) | < 1 | – | –
27 | COc1ccc(CN2C(=O)c3cccc(c3)S(=O)(=O)Nc3nc(cc(-c4c(C)cccc4C)n3)OC[C@H]2CC2(C(F)(F)F)CC2)cc1 [Compound 679] | +++ (+++ is >60%) | < 1 | – | –
28 | Cc1cccc(C)c1-c1cc2nc(n1)NS(=O)(=O)c1cccc(c1)C(=O)N(CCC1CCOCC1)[C@H](CC1(C(F)(F)F)CC1)CO2 [Compound 680] | + (+ is <30%) | < 1 | – | –
29 | Cc1cccc(C)c1-c1cc2nc(n1)NS(=O)(=O)c1cccc(c1)C(=O)N(CCC1CCOCC1)[C@H](CC1(C(F)(F)F)CC1)CO2 [Compound 681] | +++ (+++ is >60%) | < 1 | – | –
30 | CNC(=O)c1ccc(CN2C(=O)c3cccc(c3)S(=O)(=O)Nc3nc(cc(-c4c(C)cccc4C)n3)OC[C@H]2CC2(C(F)(F)F)CC2)cc1 [Compound 682] | + (+ is <30%) | 1 to 3 | – | –
31 | CNC(=O)c1ccc(CN2C(=O)c3cccc(c3)S(=O)(=O)Nc3nc(cc(-c4c(C)cccc4C)n3)OC[C@H]2CC2(C(F)(F)F)CC2)cc1 [Compound 683] | +++ (+++ is >60%) | < 1 | – | –
32 | Cc1cccc(C)c1-c1cc2nc(n1)NS(=O)(=O)c1cccc(c1)C(=O)N(Cc1ccc(N3CCN(C)CC3)nc1)[C@H](CC1(C(F)(F)F)CC1)CO2 [Compound 684] | +++ (+++ is >60%) | < 1 | – | –
33 | Cc1cccc(C)c1-c1cc2nc(n1)NS(=O)(=O)c1cccc(c1)C(=O)N(CCC(C)(C)C)[C@H](CC1(C(F)(F)F)CC1)CO2 [Compound 686] | + (+ is <30%) | < 1 | – | –
34 | Cc1cccc(C)c1-c1cc2nc(n1)NS(=O)(=O)c1cccc(c1)C(=O)N(CCC(C)C)C(CCC1(C(F)(F)F)CC1)CO2 (stereo not drawn) [Compound 688] | – | – | +++ (+++ is >60%) | < 1
35 | Cc1cccc(C)c1-c1cc2nc(n1)NS(=O)(=O)c1cccc(c1)C(=O)N(Cc1ccccc1)C(CCC1(C(F)(F)F)CC1)CO2 (stereo not drawn) [Compound 689] | – | – | +++ (+++ is >60%) | < 1
36 | Cc1cccc(C)c1-c1cc2nc(n1)NS(=O)(=O)c1cccc(c1)C(=O)N(CCC(C)C)[C@H](CCC1(C(F)(F)F)CC1)CO2 [Compound 851] | – | – | + (+ is <30%) | –
37 | Cc1cccc(C)c1-c1cc2nc(n1)NS(=O)(=O)c1cccc(c1)C(=O)N(Cc1ccccc1)[C@@H](CCC1(C(F)(F)F)CC1)CO2 [Compound 852] | – | – | ++ (++ is 30-60%) | < 1
38 | Cc1cccc(C)c1-c1cc2nc(n1)NS(=O)(=O)c1cccc(c1)C(=O)N(Cc1ccccc1)[C@H](CCC1(C(F)(F)F)CC1)CO2 [Compound 853] | – | – | ++ (++ is 30-60%) | < 1
39 | Cc1cccc(C)c1-c1cc2nc(n1)NS(=O)(=O)c1cccc(c1)C(=O)N(Cc1ccc(N3CCN(C)CC3)nc1)[C@H](CC(C)C)CO2 [Compound 854] | – | – | +++ (+++ is >60%) | < 1
40 | Cc1cccc(C)c1-c1cc2nc(n1)NS(=O)(=O)c1cccc(c1)C(=O)N(Cc1ccn(C)n1)[C@H](CC(C)C)CO2 [Compound 855] | – | – | +++ (+++ is >60%) | < 1
41 | Cc1cccc(C)c1-c1cc2nc(n1)NS(=O)(=O)c1cccc(c1)C(=O)N(Cc1ccc(N3CCN(C)CC3)cc1)[C@H](CC(C)C)CO2 [Compound 856] | – | – | +++ (+++ is >60%) | < 1
42 | CNc1ccc(CN2C(=O)c3cccc(c3)S(=O)(=O)Nc3nc(cc(-c4c(C)cccc4C)n3)OC[C@H]2CC(C)C)cn1 [Compound 857] | – | – | +++ (+++ is >60%) | < 1
43 | Cc1cccc(C)c1-c1cc2nc(n1)NS(=O)(=O)c1cccc(c1)C(=O)N(Cc1ccc(N3CCCC3)cc1)[C@H](CC(C)C)CO2 [Compound 858] | – | – | +++ (+++ is >60%) | < 1
44 | Cc1cccc(C)c1-c1cc2nc(n1)NS(=O)(=O)c1cccc(c1)C(=O)N(Cc1cccc(C#N)c1)[C@H](CC(C)C)CO2 [Compound 859] | – | – | +++ (+++ is >60%) | < 1
